Data as given in US20140315933A1, “CHEMICAL COMPOUNDS” (Pfizer Limited, priority 2013, published 2014).
Counter-ions that a name gives are not always drawn.

What follows are compounds tested against T1, URAT-1 transporter (Homo sapiens, UniProt Q96S37) (assay: URAT-1 inhibitor activity: [14C]-uric acid uptake into CHO-URAT1(L)GFP#8 (CHO#8) cells, scintillation proximity).
T1 construct: expressed in transfected cells
Format: cell-based
Method in brief: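 Scintillation proximity read-out of 30 nM (final) [14C]-uric acid uptake over three hours at room temperature in chloride-free HEPES buffer pH 7.4. Compounds, 0–10 μM final with 0.25% DMSO, were added 15 minutes before substrate; cells were a clonal CHO line with human URAT1(L)-eGFP, preincubated 1 hour in chloride buffer.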

T1 sequence (Q96S37 with tags, fused parts or gaps): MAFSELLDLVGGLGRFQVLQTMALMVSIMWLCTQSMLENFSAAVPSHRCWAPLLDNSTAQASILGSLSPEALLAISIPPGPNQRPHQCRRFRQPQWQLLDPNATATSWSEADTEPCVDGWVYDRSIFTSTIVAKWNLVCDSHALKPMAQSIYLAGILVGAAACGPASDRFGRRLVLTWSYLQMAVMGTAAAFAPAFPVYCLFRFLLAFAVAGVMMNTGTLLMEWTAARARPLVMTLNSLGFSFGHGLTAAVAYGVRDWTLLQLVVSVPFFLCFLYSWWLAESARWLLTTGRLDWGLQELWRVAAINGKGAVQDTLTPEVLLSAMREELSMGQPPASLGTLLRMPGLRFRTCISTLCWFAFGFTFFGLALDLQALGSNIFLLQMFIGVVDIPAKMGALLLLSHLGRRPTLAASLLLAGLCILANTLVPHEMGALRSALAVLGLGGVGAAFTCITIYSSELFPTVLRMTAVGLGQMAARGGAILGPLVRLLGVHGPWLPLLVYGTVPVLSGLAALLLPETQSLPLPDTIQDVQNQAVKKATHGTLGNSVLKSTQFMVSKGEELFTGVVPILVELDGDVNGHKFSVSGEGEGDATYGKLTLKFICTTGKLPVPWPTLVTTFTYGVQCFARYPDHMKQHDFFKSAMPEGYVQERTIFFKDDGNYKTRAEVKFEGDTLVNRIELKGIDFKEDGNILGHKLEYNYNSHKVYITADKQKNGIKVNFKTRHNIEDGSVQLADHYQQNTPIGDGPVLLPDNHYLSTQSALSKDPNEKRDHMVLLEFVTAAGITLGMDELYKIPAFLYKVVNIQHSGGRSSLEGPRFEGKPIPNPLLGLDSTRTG

Going from `COc1cc(Cl)cc(Oc2cc(F)c(S(=O)(=O)Nc3nncs3)cc2Cl)c1` [compound 302] to `O=S(=O)(Nc1nncs1)c1cc(Cl)c(Oc2cccc(Cl)c2)cc1F` [compound 330], the IC50 rises from 1060 nM to 2390 nM (2.3-fold).

Going from `Cc1ccc(F)cc1Oc1ccc(S(=O)(=O)Nc2ncns2)cc1C#N` [Example 41, 3-cyano-4-(5-fluoro-2-methylphenoxy)-N-(1,2,4-thiadiazol-5-yl)benzenesulfonamide] to `Cc1cc(Cl)ccc1Oc1ccc(S(=O)(=O)Nc2ncns2)cc1C#N` [Example 42, 4-(4-chloro-2-methylphenoxy)-3-cyano-N-(1,2,4-thiadiazol-5-yl)benzenesulfonamide], the IC50 rises from 1350 nM to over 3090 nM.

`CNc1ccc(Oc2ccc(S(=O)(=O)Nc3nccs3)cc2C#N)cn1` [Example 187, 3-cyano-4-{[6-(methylamino)pyridin-3-yl]oxy}-N-(1,3-thiazol-2-yl)benzenesulfonamide] and `CCNc1ccc(Oc2ccc(S(=O)(=O)Nc3nccs3)cc2C#N)cn1` [Example 189, 3-cyano-4-{[6-(ethylamino)pyridin-3-yl]oxy}-N-(1,3-thiazol-2-yl)benzenesulfonamide] cannot be ordered by IC50: over 6640 nM for the first, over 10000 nM for the second.

`N#Cc1cc(S(=O)(=O)Nc2ncns2)ccc1Oc1cccc(Cl)c1F` [Example 48, 4-(3-chloro-2-fluorophenoxy)-3-cyano-N-(1,2,4-thiadiazol-5-yl)benzenesulfonamide] and `N#Cc1ccc(Oc2ccc(S(=O)(=O)Nc3ncns3)cc2C#N)c(F)c1` [Example 51, 3-cyano-4-(4-cyano-2-fluorophenoxy)-N-(1,2,4-thiadiazol-5-yl)benzenesulfonamide] are within 1.5-fold of each other in IC50: 1960 nM for the first, 2140 nM for the second.

`COc1c(F)ccc(Oc2ccc(S(=O)(=O)Nc3ncns3)cc2C#N)c1C` [compound 264] and `COc1ccc(Oc2ccc(S(=O)(=O)Nc3ncns3)cc2C#N)cc1F` [compound 257] are within 1.5-fold of each other in IC50: 1650 nM for the first, 1200 nM for the second.

Compared with `CC(C)Oc1ccccc1Oc1ccc(S(=O)(=O)Nc2ncns2)cc1C#N` [compound 278], `Cc1ccncc1Oc1ccc(S(=O)(=O)Nc2ncns2)cc1C#N` [compound 272, trifluoroacetic acid salt] is higher in IC50: 2740 nM for the first, over 4320 nM for the second.

`N#Cc1cc(S(=O)(=O)Nc2ncc(F)s2)ccc1Oc1ccc(CCO)cc1` [Example 146, 3-cyano-N-(5-fluoro-1,3-thiazol-2-yl)-4-[4-(2-hydroxyethyl)phenoxy]benzenesulfonamide] and `N#Cc1cc(S(=O)(=O)Nc2ncc(F)s2)ccc1Oc1cc(F)cc(F)c1` [Example 106, 3-cyano-4-(3,5-difluorophenoxy)-N-(5-fluoro-1,3-thiazol-2-yl)benzenesulfonamide] cannot be ordered by IC50: over 10000 nM for the first, over 1340 nM for the second.

Going from `COc1cc(Cl)ccc1Oc1cc(F)c(S(=O)(=O)Nc2nncs2)cc1Cl` [Example 150, 5-chloro-4-(4-chloro-2-methoxyphenoxy)-2-fluoro-N-(1,3,4-thiadiazol-2-yl)benzenesulfonamide] to `COc1ccc(C)cc1Oc1cc(F)c(S(=O)(=O)Nc2nncs2)cc1Cl` [compound 300], the IC50 falls from 2510 nM to 329 nM (7.6-fold). The second is the more potent here.

Compared with `N#Cc1cc(S(=O)(=O)Nc2nccs2)ccc1Oc1ccc(I)cc1` [compound 165], `N#Cc1cc(Oc2ccc(S(=O)(=O)Nc3nccs3)cc2F)ccc1F` [compound 242] is 1.9-fold higher in IC50: 505 nM for the first, 967 nM for the second.

`Cc1ccc(Oc2ccc(S(=O)(=O)Nc3ncc(F)s3)cc2C#N)c(C)c1` [Example 101, 3-cyano-4-(2,4-dimethylphenoxy)-N-(5-fluoro-1,3-thiazol-2-yl)benzenesulfonamide] and `Cc1cccc(Cl)c1Oc1ccc(S(=O)(=O)Nc2ncc(F)s2)cc1C#N` [Example 127, 4-(2-chloro-6-methylphenoxy)-3-cyano-N-(5-fluoro-1,3-thiazol-2-yl)benzenesulfonamide] are within 1.5-fold of each other in IC50: 1760 nM for the first, 2290 nM for the second.

First: N#Cc1cc(Oc2ccc(S(=O)(=O)Nc3nncs3)cc2C#N)ccc1F [compound 199]
Second: N#Cc1cc(Oc2ccc(S(=O)(=O)Nc3ncns3)cc2Cl)ccc1F [compound 207]
The IC50 of the first is higher: over 6370 nM for the first, 747 nM for the second.

`COc1c(Oc2cc(F)c(S(=O)(=O)Nc3nncs3)cc2Cl)ccc(F)c1C` [compound 319] and `O=S(=O)(Nc1nncs1)c1cc(Cl)c(Oc2c(F)cccc2Cl)cc1F` [compound 332] cannot be ordered by IC50: over 1710 nM for the first, over 2380 nM for the second.

First: Cc1cc(Oc2ccc(S(=O)(=O)Nc3nccs3)cc2F)ccc1F [Example 74, 3-fluoro-4-(4-fluoro-3-methylphenoxy)-N-(1,3-thiazol-2-yl)benzenesulfonamide]
Second: Cc1cc(S(=O)(=O)Nc2ncns2)ccc1Oc1ccc(F)c(F)c1 [compound 211]
The IC50 of the first is higher: over 3440 nM for the first, 1110 nM for the second. The second is the more potent here.

First: N#Cc1cc(S(=O)(=O)Nc2nccs2)ccc1Oc1ccc(CO)cc1F [Example 7, 3-cyano-4-[2-fluoro-4-(hydroxymethyl)phenoxy]-N-(1,3-thiazol-2-yl)benzenesulfonamide, diethylamine salt]
Second: N#Cc1cc(S(=O)(=O)Nc2nccs2)ccc1Oc1cccc(Cl)c1C#N [compound 180]
The IC50 of the first is 5.8-fold lower: 141 nM for the first, 814 nM for the second. The first is the more potent here.

First: O=S(=O)(Nc1nncs1)c1ccc(Oc2ccc(F)c(F)c2)cc1Cl [Example 249, 2-chloro-4-(3,4-difluorophenoxy)-N-(1,3,4-thiadiazol-2-yl)benzenesulfonamide]
Second: N#Cc1ccc(Oc2ccc(S(=O)(=O)Nc3cscn3)c(F)c2)cc1Cl [compound 225]
The IC50 of the first is higher: over 10000 nM for the first, 300 nM for the second. The second is the more potent here.

`N#Cc1cc(S(=O)(=O)Nc2nncs2)ccc1Oc1cnc(OC2CCC2)c(Cl)c1` [Example 336] and `COc1cc(Cl)c(Cl)cc1Oc1ccc(S(=O)(=O)Nc2ncns2)cc1C#N` [Example 9, 3-cyano-4-(4,5-dichloro-2-methoxyphenoxy)-N-(1,2,4-thiadiazol-5-yl)benzenesulfonamide] cannot be ordered by IC50: 3910 nM for the first, over 2810 nM for the second.

`CCOc1ccc(Oc2ccc(S(=O)(=O)Nc3ncns3)cc2C#N)cc1` [compound 279] and `COc1cc(C(F)(F)F)ccc1Oc1ccc(S(=O)(=O)Nc2ncns2)cc1C#N` [Example 25, 3-cyano-4-[2-methoxy-4-(trifluoromethyl)phenoxy]-N-(1,2,4-thiadiazol-5-yl)benzenesulfonamide diethylamine salt] cannot be ordered by IC50: over 10000 nM for the first, over 10000 nM for the second.

First: CC(C)c1ncccc1Oc1cc(F)c(S(=O)(=O)Nc2nncs2)cc1Cl [compound 298]
Second: N#Cc1cc(Oc2cc(F)c(S(=O)(=O)Nc3ncns3)cc2F)ccc1F [compound 213]
The IC50 of the first is 2.2-fold higher: 4390 nM for the first, 2040 nM for the second.

`COc1cc(Cl)ccc1Oc1ccc(S(=O)(=O)Nc2cscn2)c(Cl)c1` [Example 81, 2-chloro-4-(4-chloro-2-methoxyphenoxy)-N-(1,3-thiazol-4-yl)benzenesulfonamide diethylamine salt] and `N#Cc1cc(S(=O)(=O)Nc2ncc(F)s2)ccc1Oc1ccc(Cl)cc1OC(F)(F)F` [Example 91, 4-[4-chloro-2-(trifluoromethoxy)phenoxy]-3-cyano-N-(5-fluoro-1,3-thiazol-2-yl)benzenesulfonamide] are within 1.5-fold of each other in IC50: 3600 nM for the first, 2630 nM for the second.

Going from `CCc1cc(F)ccc1Oc1ccc(S(=O)(=O)Nc2ncns2)cc1CC` [Example 2, 3-ethyl-4-(2-ethyl-4-fluorophenoxy)-N-(1,2,4-thiadiazol-5-yl)benzenesulfonamide diethylamine salt] to `N#Cc1ccc(OC(F)F)c(Oc2ccc(S(=O)(=O)Nc3ncns3)cc2C#N)c1` [Example 24, 3-cyano-4-[5-cyano-2-(difluoromethoxy)phenoxy]-N-(1,2,4-thiadiazol-5-yl)benzenesulfonamide diethylamine salt], the IC50 rises from 64 nM to over 10000 nM.
